# US20190290631A1, “PHARMACEUTICAL COMPOSITION COMPRISING RAPAMYCIN OR DERIVATIVE THEREOF” (NIPPON KAYAKU KABUSHIKI KAISHA, priority 2016, published 2019)
# Test: Purity of everolimus in ethanol solution
# Assay type: physicochemical
# Conditions: dissolved in ethanol, 3 hours/25° C.
# Procedure: However, since an aqueous solution of a coating agent needs to be used in order to prepare such a film-coated tablet, the aforementioned method cannot be applied to drugs having low chemical stability against aqueous solvents. […] For example, everolimus as a rapamycin derivative has physical properties, by which when it is dissolved in ethanol to prepare an ethanol solution thereof, its purity is decreased by 4% or more under conditions of 3 hours/25° C. As such, it is not preferable that a film coating technique involving the use of an aqueous solvent be applied, as a pharmaceutical formulation of light-resistant preparations, to a pharmaceutical product tablet comprising, as an active ingredient, rapamycin and a derivative thereof.
smiles,measurement,value
"CO[C@H]1C[C@@H]2CC[C@@H](C)[C@@](O)(O2)C(=O)C(=O)N2CCCC[C@H]2C(=O)O[C@H]([C@H](C)C[C@@H]2CC[C@@H](OCCO)[C@H](OC)C2)CC(=O)[C@H](C)/C=C(\C)[C@@H](O)[C@@H](OC)C(=O)[C@H](C)C[C@H](C)/C=C/C=C/C=C/1C [everolimus, 40-O-(2-hydroxyethyl)rapamycin]",decrease in purity in ethanol solution,≥ 4%
